Experiment [1] concerns bumblebee Bombus impatiens. Description: Olfactory conditioning of PER in bumblebees: ad libitum rutin vs acute imidacloprid or fipronil. Type of experiment: in vivo. To be noted: for learning score relative to Control bees: score 0-10, ad libitum 1 μM rutin three days, 5 nM imidacloprid or 6 nM fipronil 20 μL 2 hours before training. As for the experimental part: One colony of the bumblebee Bombus impatiens (Koppert Inc) was kept in laboratory conditions. Bees received pollen inside the nests and foraged to a 1M sugar-water feeder outside of the nest. Bees were collected while on the feeder and iced anesthetized to then be randomly assigned to one of two plastic containers where ad libitum self-administration of one of two solutions was allowed to 10 bees: i) 1 M sucrose water or ii) 1 μM Rutin (Sigma-Aldrich R5143) diluted in 1M sucrose water. On the night of the third day, the feeder was removed to starve the bees. On the fourth day, the bees were iced anesthetized and yolked restrained in plastic pipettes. Bees were maintained in the pipettes for the rest of the experiment (two days). One hour after harnessing, the bees were randomly assigned to one of three treatments: i) 20 μL of 1M sucrose water, ii) 20 μL of 1M sucrose water+5 nM imidacloprid, iii) 20 μL of 1M sucrose water+6 nM fipronil. Thus, overall bees belonged to one of six treatments:
Control: ad libitum sucrose water for three days and 20 μL of sucrose water before training
Rutin: ad libitum 1 μM Rutin for three days and 20 μL of sucrose water before training
Imid: ad libitum sucrose water for three days and 20 μL of 5 nM Imidacloprid in 1M sugar water 2 hours before training
Rutin+Imid: ad libitum 1 μM Rutin for three days and 20 μL of 5 nM Imidacloprid in 1M sugar water 2 hours before training
Fipronil: ad libitum sucrose water for three days and 20 μL of 5 nM fipronil in 1M sucrose water 2 hours before training
Rutin+Fipronil: ad libitum […] Rutin for three days and 20 μL of 6 nM fipronil in 1M sugar water 2 hours before training
(§1) All bees were blind-trained using olfactory conditioning of the proboscis extension response (PER). Briefly, bees were exposed to a presentation of 1-nonanol (Sigma-Aldrich) for 10 s. After 7 s of the onset of the odor presentation, the antenna was stimulated with 1.5 M sugar-water to elicit the PER. Following the PER, the bee was allowed to drink sugar-water for 3 s. Each paired presentation was considered a training trial and each individual received eleven training trials with an average intertrial interval of 10 minutes. After training, all bees were fed 20 μL of 1M sugar water and maintained in plastic boxes for 24 h until the retention test. […] Twenty-four hours after the last training trial the bees were presented with the conditioned odor for 10 s.
(§2) Learning for each individual was quantified as the number of conditioned PER responses across the trials. Thus, for each bee a learning score between zero and ten (0-10) was recorded.
Multiple comparisons were then run comparing learning score relative to Control bees using a non-parametric one or two-tailed Steel Method depending upon predictions. These comparisons informed us about the predicted impairment produced by the insecticides, the predicted innocuous effect of the flavonoid and the potential level of protection. Error due to multiple comparisons was controlled using the False Discovery Rate method (FDR-two stage sharpened method). In all cases corrected p-values (q-values) are presented.
(§3) Memory retention was quantified as a nominal variable (yes/no). Data were compared across treatments using a Chi-square test, followed by multiple comparisons of all treatments vs. Control. Error due to multiple comparisons was controlled using the FDR as indicated above. In all cases corrected p-values (q values) are presented.
Latency was quantified as a continuous variable between 0.5 s and 10 s. Data were compared across treatments using an ANOVA following a Log transformation to normalize the distribution (Shapiro-Wilk W Test after log transformation: p>0.05 for all treatments for the null hypothesis that data is from a normal distribution), followed by multiple comparisons between all treatments and the Control group. Error due to multiple comparisons was controlled using the FDR method as indicated above. […]

Experiment [2] relates to bumblebee Bombus impatiens. Briefly: Olfactory conditioning of PER in bumblebees: self-administered rutin vs chronic fipronil. Type of experiment: in vivo. To be noted: bumblebees; score 0-10; self-administered 1 μM rutin six days; 6 nM fipronil feeder for the last three days (chronic). As for the experimental part: One colony of the bumblebee Bombus impatiens (Koppert Inc) was kept in laboratory conditions. Bees received pollen inside the nests and foraged to a 1M sugar-water feeder outside of the nest. Bees were collected while on the feeder and iced anesthetized to then be randomly assigned to one of four plastic containers where self-administration of one of two solutions was allowed to 10 bees out of two feeders (glass vials with 500 μL of solution each): i) 1 M sucrose water or ii) 1 μM Rutin (Sigma-Aldrich R5143) diluted in 1M sucrose water. Feeders were refilled each day for three days. On the night of the third day, one of the vials was replaced by a new one with one of two solutions: i) 1 M sucrose water or ii) 1M sucrose water+6 nM fipronil. Feeders were refilled each day for three more days, thus providing a chronic exposure to fipronil. On the night of the […] day, bees were iced anesthetized and yolked restrained in plastic pipettes. Thus, bees belonged to one of four treatments:
Control: self-administered sucrose water for six days
Rut: self-administered rutin for six days
Fipro: self-administered sucrose water for three days followed by three days of self-administered sucrose water (one feeder) and fipronil (one feeder).
Rut+Fipro: self-administered rutin for three days followed by three days of self-administered rutin (one feeder) and fipronil (one feeder).
as §1, §2
Multiple comparisons were then run comparing learning score relative to Control bees using a non-parametric one or two-tailed Steel Method depending upon predictions. These comparisons informed us about the predicted impairment produced by the fipronil, the predicted innocuous effect of the rutin and the potential level of protection. Error due to multiple comparisons was controlled using the False Discovery Rate method (FDR-two stage sharpened method). In all cases corrected p-values (q-values) are presented.
as §3
Latency was quantified as a continuous variable between 0.5 s and 10 s. […]

Regarding `O=[N+]([O-])NC1=NCCN1Cc1ccc(Cl)nc1` [Imidacloprid], in experiment [1] (24 h retention), the “odds of remembering for Control bees relative to insecticide bees” value was 12 times and the “proportion difference Control minus insecticide group for a PER response (Adjusted Wald test)” value is on record as 0.51. For the same compound, in experiment [1] (bumblebees), the “decision-making ratio (latency of response / learning score) relative to Control bees” value is recorded as “significant increase” and the “learning score relative to Control bees” value is recorded as “significantly lower”. Besides, the “bees exhibiting a conditioned response after 24 h” value in experiment [1] (bumblebees, 24 h retention test) is recorded as 13%.

As for `C[C@@H]1O[C@@H](OC[C@H]2O[C@@H](Oc3c(-c4ccc(O)c(O)c4)oc4cc(O)cc(O)c4c3=O)[C@H](O)[C@@H](O)[C@@H]2O)[C@H](O)[C@H](O)[C@H]1O` [Rutin], the “learning score relative to Control bees” value in experiment [1] (bumblebees) and in experiment [2] was “not significantly different” throughout.

Source of the values: patent US20220339178A1, “COMPOSITIONS AND METHODS FOR COGNITIVE PROTECTION OF POLLINATORS AGAINST PESTICIDES” (priority 2019, published 2022).
